{"source": "ChEMBL document CHEMBL4665648", "about": "“Potent and selective inhibitors of receptor-interacting protein kinase 1 that lack an aromatic back pocket group” (Bioorg Med Chem Lett, 2019)", "key": {"[1]": {"target": "Death-associated protein kinase 1 (Homo sapiens) (UniProt P53355)", "test": "Inhibition of recombinant human N-terminal GST-tagged DAPK1 (1 to 363 residues) expressed in baculovirus expression system using ZIPtide as substrate at 10 uM incubated for 60 mins by Adapta assay relative to control"}, "[2]": {"target": "Fibroblast growth factor receptor 4 (Homo sapiens) (UniProt P22455)", "test": "Inhibition of recombinant human His-tagged FGFR4 ([…] residues) expressed in baculovirus expression system using Tyr 04 as substrate at 10 uM incubated for 60 mins by Z'-Lyte assay relative to control"}, "[3]": {"target": "Casein kinase II subunit alpha (Homo sapiens) (UniProt P68400)", "test": "Inhibition of recombinant human His-tagged full length CK2alpha1 expressed in baculovirus expression system using Ser/Thr 1 as substrate at 10 uM incubated for 60 mins by Z'-Lyte assay relative to control"}, "[4]": {"target": "High affinity nerve growth factor receptor (Homo sapiens) (UniProt P04629)", "sequence (P04629 33-796 limits assumed)": "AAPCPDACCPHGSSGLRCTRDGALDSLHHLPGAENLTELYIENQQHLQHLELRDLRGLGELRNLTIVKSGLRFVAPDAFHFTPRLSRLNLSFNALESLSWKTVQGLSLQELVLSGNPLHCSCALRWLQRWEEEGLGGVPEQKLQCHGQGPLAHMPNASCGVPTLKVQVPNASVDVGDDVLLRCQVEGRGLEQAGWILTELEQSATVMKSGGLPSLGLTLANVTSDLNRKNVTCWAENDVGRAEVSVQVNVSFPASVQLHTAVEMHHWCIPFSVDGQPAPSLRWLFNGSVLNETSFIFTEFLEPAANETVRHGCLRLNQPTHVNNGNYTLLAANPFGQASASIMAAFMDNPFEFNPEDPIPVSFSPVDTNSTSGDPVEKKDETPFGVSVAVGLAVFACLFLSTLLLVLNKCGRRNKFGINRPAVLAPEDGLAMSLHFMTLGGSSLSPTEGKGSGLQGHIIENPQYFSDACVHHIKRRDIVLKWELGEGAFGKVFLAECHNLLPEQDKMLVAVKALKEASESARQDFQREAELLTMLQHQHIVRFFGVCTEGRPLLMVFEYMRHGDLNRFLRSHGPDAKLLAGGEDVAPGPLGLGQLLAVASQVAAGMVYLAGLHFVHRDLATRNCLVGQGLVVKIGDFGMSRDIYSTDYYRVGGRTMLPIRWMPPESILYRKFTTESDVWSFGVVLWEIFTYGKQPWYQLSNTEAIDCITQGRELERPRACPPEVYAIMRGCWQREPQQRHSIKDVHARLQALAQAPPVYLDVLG", "test": "Inhibition of recombinant human His-tagged TRKA (441 to 796 residues) expressed in baculovirus expression system using Tyr 01 as substrate at 10 uM incubated for 60 mins by Z'-Lyte assay relative to control"}, "[5]": {"target": "Inhibitor of nuclear factor kappa-B kinase subunit alpha (Homo sapiens) (UniProt O15111)", "test": "Inhibition of recombinant human His-tagged full length IKKalpha expressed in baculovirus expression system at 10 uM incubated for 60 mins by Adapta assay relative to control"}, "[6]": {"target": "Tyrosine-protein kinase Lck (Homo sapiens) (UniProt P06239)", "test": "Inhibition of recombinant human His-tagged full length LCK expressed in baculovirus expression system using Tyr 02 as substrate at 10 uM incubated for 60 mins by Z'-lyte assay relative to control"}, "[7]": {"target": "Sphingosine kinase 1 (Homo sapiens) (UniProt Q9NYA1)", "sequence (Q9NYA1 whole entry)": "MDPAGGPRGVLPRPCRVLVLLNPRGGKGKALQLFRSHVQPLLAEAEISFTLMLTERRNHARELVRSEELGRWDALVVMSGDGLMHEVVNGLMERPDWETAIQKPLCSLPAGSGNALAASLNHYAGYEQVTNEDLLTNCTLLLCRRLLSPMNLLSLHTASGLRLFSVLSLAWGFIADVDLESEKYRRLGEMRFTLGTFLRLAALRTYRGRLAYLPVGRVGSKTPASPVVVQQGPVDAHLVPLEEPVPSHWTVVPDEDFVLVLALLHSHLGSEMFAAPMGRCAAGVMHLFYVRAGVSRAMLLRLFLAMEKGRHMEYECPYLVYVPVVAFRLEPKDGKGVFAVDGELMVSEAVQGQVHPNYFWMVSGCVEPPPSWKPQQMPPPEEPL", "test": "Inhibition of recombinant human GST-tagged full length SPHK1 expressed in baculovirus expression system using sphingosine lipid substrate mixture as substrate at 10 uM incubated for 60 mins by Adapta assay relative to control"}, "[8]": {"target": "Tyrosine-protein kinase JAK1 (Homo sapiens) (UniProt P23458)", "test": "Inhibition of recombinant human GST-tagged JAK1 (866 to 1154 residues) expressed in baculovirus expression system using Tyr 06 as substrate at 10 uM incubated for 60 mins by Z'-lyte assay relative to control"}, "[9]": {"target": "Mitogen-activated protein kinase 1 (Homo sapiens) (UniProt P28482)", "sequence (P28482 whole entry)": "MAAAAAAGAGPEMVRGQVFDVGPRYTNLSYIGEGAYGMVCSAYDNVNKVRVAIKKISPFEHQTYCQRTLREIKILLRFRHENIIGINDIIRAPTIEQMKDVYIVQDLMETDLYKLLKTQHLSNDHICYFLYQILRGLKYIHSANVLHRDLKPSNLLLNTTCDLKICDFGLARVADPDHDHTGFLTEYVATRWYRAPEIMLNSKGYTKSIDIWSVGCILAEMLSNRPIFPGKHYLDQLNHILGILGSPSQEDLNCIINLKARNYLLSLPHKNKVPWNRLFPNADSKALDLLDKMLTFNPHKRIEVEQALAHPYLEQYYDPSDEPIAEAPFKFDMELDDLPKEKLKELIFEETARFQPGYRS", "test": "Inhibition of recombinant human GST-tagged full length ERK2 expressed in baculovirus expression system using Ser/Thr 03 as substrate at 10 uM incubated for 60 mins by Z'-Lyte assay relative to control"}, "[10]": {"target": "Serine/threonine-protein kinase N1 (Homo sapiens) (UniProt Q16512)", "test": "Inhibition of recombinant human GST-tagged full length PRK1 expressed in baculovirus expression system using Ser/Thr 07 as substrate at 10 uM incubated for 60 mins by Z'-lyte assay relative to control"}, "[11]": {"target": "SRSF protein kinase 1 (Homo sapiens) (UniProt Q96SB4)", "test": "Inhibition of recombinant human His-tagged full length SRPK1 expressed in baculovirus expression system using Ser/Thr 18 as substrate at 10 uM incubated for 60 mins by Z'-Lyte assay relative to control"}, "[12]": {"target": "Serine/threonine-protein kinase 4 (Homo sapiens) (UniProt Q13043)", "sequence (Q13043 whole entry)": "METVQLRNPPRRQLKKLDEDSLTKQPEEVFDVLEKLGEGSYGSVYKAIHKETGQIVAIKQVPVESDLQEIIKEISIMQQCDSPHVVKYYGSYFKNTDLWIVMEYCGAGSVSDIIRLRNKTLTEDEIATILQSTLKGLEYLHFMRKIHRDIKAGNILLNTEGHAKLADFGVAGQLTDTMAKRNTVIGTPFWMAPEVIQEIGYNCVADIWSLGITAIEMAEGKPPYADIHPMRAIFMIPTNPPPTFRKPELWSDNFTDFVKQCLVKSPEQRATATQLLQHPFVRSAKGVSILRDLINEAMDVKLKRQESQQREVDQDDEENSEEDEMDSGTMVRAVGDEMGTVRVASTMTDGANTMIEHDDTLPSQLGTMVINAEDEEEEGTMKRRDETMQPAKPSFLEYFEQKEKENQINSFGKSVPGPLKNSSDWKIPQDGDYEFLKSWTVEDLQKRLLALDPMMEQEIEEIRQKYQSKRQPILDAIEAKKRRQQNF", "test": "Inhibition of recombinant human GST-tagged full length MST1 expressed in baculovirus expression system using Ser/Thr 01 as substrate at 10 uM incubated for 60 mins by Z'-lyte assay relative to control"}, "[13]": {"target": "TGF-beta receptor type-1 (Homo sapiens) (UniProt P36897)", "test": "Inhibition of tracer 178 binding to recombinant human N-terminal GST-tagged TGFBR1 (200 to 503 residues) expressed in baculovirus expression system at 10 uM incubated for 60 mins by Lanthascreen assay relative to control"}, "[14]": {"target": "Insulin receptor-related protein (Homo sapiens) (UniProt P14616)", "sequence (P14616 27-742 limits assumed)": "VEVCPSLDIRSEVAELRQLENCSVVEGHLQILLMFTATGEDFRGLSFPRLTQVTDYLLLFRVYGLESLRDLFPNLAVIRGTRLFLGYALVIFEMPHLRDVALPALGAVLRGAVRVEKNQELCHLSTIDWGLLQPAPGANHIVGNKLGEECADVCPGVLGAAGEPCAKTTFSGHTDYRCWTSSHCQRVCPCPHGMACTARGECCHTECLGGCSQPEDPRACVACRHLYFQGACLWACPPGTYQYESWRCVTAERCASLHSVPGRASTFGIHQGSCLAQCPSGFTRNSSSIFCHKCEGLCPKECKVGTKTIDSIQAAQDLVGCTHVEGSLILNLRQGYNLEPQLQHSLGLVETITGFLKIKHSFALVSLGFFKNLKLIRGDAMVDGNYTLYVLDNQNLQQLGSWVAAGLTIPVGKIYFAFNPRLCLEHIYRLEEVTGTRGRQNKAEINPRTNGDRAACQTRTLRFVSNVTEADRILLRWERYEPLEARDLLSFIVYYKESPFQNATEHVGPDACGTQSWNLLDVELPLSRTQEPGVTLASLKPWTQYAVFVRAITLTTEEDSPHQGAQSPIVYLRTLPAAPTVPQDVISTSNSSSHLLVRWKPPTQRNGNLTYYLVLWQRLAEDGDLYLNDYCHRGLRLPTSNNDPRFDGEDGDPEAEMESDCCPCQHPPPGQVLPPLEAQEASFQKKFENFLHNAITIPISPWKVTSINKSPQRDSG", "sequence (P14616 747-1297 limits assumed)": "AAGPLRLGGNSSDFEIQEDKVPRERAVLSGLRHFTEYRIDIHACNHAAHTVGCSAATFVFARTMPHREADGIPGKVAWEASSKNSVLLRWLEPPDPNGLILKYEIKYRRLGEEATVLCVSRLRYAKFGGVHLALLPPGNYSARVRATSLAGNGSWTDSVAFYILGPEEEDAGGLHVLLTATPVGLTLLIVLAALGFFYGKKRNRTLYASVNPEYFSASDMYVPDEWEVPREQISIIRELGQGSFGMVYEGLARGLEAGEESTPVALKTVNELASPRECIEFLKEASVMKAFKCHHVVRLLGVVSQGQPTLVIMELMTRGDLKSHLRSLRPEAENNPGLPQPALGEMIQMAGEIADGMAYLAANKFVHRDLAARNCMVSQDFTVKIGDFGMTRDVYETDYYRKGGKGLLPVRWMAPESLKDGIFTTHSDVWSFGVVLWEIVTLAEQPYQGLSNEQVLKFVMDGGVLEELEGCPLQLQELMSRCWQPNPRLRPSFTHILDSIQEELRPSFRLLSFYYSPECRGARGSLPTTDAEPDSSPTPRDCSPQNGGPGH", "test": "Inhibition of recombinant human GST-tagged IRR (944 to 1297 residues) expressed in baculovirus expression system using Tyr 04 as substrate at 10 uM incubated for 60 mins by Z'-lyte assay relative to control"}, "[15]": {"target": "CDK8/Cyclin C (Homo sapiens) (UniProt P49336+P24863)", "test": "Inhibition of tracer 236 binding to recombinant human His-tagged full length CDK8/Cyclin C expressed in baculovirus expression system at 10 uM incubated for 60 mins by Lanthascreen assay relative to control"}, "[16]": {"target": "Cytoplasmic tyrosine-protein kinase BMX (Homo sapiens) (UniProt P51813)", "test": "Inhibition of recombinant human His-tagged full length BMX expressed in baculovirus expression system using Tyr 01 as substrate at 10 uM incubated for 60 mins by Z'-Lyte assay relative to control"}, "[17]": {"target": "Serine/threonine-protein kinase 17A (Homo sapiens) (UniProt Q9UEE5)", "test": "Inhibition of tracer 236 binding to recombinant human GST-tagged full length DRAK1 expressed in baculovirus expression system at 10 uM incubated for 60 mins by Lanthascreen assay relative to control"}, "[18]": {"target": "Dual specificity protein kinase CLK4 (Homo sapiens) (UniProt Q9HAZ1)", "sequence (Q9HAZ1 whole entry, looked up)": "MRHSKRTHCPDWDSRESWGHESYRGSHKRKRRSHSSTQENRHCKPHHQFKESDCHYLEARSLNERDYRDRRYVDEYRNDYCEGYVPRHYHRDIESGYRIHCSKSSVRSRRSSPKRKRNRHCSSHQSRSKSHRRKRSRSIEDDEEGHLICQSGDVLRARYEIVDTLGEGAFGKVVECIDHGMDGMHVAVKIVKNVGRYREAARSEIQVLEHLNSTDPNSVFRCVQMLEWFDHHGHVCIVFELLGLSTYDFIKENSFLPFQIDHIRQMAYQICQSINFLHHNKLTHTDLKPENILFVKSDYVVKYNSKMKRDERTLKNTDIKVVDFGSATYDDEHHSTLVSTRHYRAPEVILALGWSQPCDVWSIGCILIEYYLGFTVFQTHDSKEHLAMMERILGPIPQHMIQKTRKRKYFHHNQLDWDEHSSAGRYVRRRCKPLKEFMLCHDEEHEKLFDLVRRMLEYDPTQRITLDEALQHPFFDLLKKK", "test": "Inhibition of tracer 236 binding to recombinant human GST-tagged full length CLK4 expressed in baculovirus expression system at 10 uM incubated for 60 mins by Lanthascreen assay relative to control"}, "[19]": {"target": "Mitogen-activated protein kinase 10 (Homo sapiens) (UniProt P53779)", "sequence (P53779 whole entry)": "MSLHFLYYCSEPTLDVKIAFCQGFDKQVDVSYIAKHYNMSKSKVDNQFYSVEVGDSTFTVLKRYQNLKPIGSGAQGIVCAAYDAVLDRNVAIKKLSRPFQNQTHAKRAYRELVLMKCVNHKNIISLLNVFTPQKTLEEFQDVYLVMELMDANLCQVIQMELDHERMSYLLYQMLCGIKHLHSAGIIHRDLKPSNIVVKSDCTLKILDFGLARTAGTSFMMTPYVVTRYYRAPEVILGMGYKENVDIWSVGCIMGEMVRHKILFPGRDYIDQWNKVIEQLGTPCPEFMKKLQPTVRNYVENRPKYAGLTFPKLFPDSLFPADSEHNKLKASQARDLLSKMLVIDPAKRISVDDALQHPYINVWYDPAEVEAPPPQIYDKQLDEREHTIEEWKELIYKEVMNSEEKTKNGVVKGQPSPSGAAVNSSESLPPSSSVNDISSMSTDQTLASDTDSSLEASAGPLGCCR", "test": "Inhibition of recombinant human N-terminal GST-tagged full length JNK3 expressed in baculovirus expression system using Ser/Thr 04 as substrate at 10 uM incubated for 60 mins by Z'-lyte assay relative to control"}, "[20]": {"target": "Tyrosine-protein kinase Yes (Homo sapiens) (UniProt P07947)", "test": "Inhibition of recombinant human GST-tagged full length YES expressed in baculovirus expression system using Tyr 02 as substrate at 10 uM incubated for 60 mins by Z'-Lyte assay relative to control"}, "[21]": {"target": "Mitogen-activated protein kinase 11 (Homo sapiens) (UniProt Q15759)", "test": "Inhibition of recombinant human His-tagged full length p38 beta expressed in baculovirus expression system using Ser/Thr 15 as substrate at 10 uM incubated for 60 mins by Z'-Lyte assay relative to control"}, "[22]": {"target": "RAC-alpha serine/threonine-protein kinase (Homo sapiens) (UniProt P31749)", "sequence (P31749 whole entry)": "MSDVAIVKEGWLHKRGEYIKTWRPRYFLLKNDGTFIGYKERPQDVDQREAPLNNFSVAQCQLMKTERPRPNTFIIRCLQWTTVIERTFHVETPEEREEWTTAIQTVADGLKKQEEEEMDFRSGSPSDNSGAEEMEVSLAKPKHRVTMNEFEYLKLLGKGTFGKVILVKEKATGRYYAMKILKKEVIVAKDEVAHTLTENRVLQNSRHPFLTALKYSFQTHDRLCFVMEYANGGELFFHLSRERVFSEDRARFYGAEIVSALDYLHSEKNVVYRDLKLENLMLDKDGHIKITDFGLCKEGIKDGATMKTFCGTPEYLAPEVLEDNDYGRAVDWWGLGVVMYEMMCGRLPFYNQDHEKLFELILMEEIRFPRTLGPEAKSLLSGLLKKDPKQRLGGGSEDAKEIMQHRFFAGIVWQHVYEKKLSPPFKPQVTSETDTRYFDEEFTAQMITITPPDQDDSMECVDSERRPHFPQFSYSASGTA", "test": "Inhibition of recombinant human His-tagged full length AKT1 expressed in baculovirus expression system using Ser/Thr 06 as substrate at 10 uM incubated for 60 mins by Z'-Lyte assay relative to control"}, "[23]": {"target": "Tyrosine-protein kinase SYK (Homo sapiens) (UniProt P43405)", "test": "Inhibition of recombinant human N-terminalGST-tagged full length SYK expressed in baculovirus expression system using Tyr 02 as substrate at 10 uM incubated for 60 mins by Z'-Lyte assay relative to control"}, "[24]": {"target": "Epithelial discoidin domain-containing receptor 1 (Homo sapiens) (UniProt Q08345)", "test": "Inhibition of tracer 178 binding to recombinant human GST-tagged DDR1 (440 to 876 residues ) expressed in baculovirus expression system at 10 uM incubated for 60 mins by Lanthascreen assay relative to control"}, "[25]": {"test": "Half life in Sprague-Dawley rat at 0.5 mg/kg, iv or 2 mg/kg, po", "format": "ADME, organism-based", "details": "in vivo"}}, "data": [{"compound": "CN1C(=O)[C@@H](NC(=O)c2n[nH]c3ncc(C(F)(F)C(F)(F)F)cc23)COc2ccccc21", "values": [{"measurement": "inhibition", "setting": "[1]", "result": 0.5, "unit": "%"}, {"measurement": "inhibition", "setting": "[2]", "result": -7, "unit": "%"}, {"measurement": "inhibition", "setting": "[3]", "result": 4.5, "unit": "%"}, {"measurement": "inhibition", "setting": "[4]", "result": 3, "unit": "%"}, {"measurement": "inhibition", "setting": "[5]", "result": -4, "unit": "%"}, {"measurement": "inhibition", "setting": "[6]", "result": -0.5, "unit": "%"}, {"measurement": "inhibition", "setting": "[7]", "result": -8, "unit": "%"}, {"measurement": "inhibition", "setting": "[8]", "result": 5, "unit": "%"}, {"measurement": "inhibition", "setting": "[9]", "result": 7, "unit": "%"}, {"measurement": "inhibition", "setting": "[10]", "result": 1, "unit": "%"}, {"measurement": "inhibition", "setting": "[11]", "result": -2.5, "unit": "%"}, {"measurement": "inhibition", "setting": "[12]", "result": 7.5, "unit": "%"}, {"measurement": "inhibition", "setting": "[13]", "result": -4.5, "unit": "%"}, {"measurement": "inhibition", "setting": "[14]", "result": 6.5, "unit": "%"}, {"measurement": "inhibition", "setting": "[15]", "result": 14, "unit": "%"}, {"measurement": "inhibition", "setting": "[16]", "result": 1.5, "unit": "%"}, {"measurement": "inhibition", "setting": "[17]", "result": 15.5, "unit": "%"}, {"measurement": "inhibition", "setting": "[18]", "result": 18, "unit": "%"}, {"measurement": "inhibition", "setting": "[19]", "result": 7, "unit": "%"}, {"measurement": "inhibition", "setting": "[20]", "result": 2.5, "unit": "%"}, {"measurement": "inhibition", "setting": "[21]", "result": 9, "unit": "%"}, {"measurement": "inhibition", "setting": "[22]", "result": -0.5, "unit": "%"}, {"measurement": "inhibition", "setting": "[23]", "result": 6, "unit": "%"}, {"measurement": "inhibition", "setting": "[24]", "result": 7, "unit": "%"}, {"measurement": "half-life", "setting": "[25]", "result": 4.8, "unit": "h"}]}]}
